How the values were obtained:
(UniProt A0A890JDX9) = target: T1, (UniProt A0A890JDX9); assay: spectrophotometric NADPH oxidation kinetics with purified enzyme; substrate and substrate inhibitor; assay type: biochemical, Pseudomonas mandelii
T1 construct: gene hcdE; recombinant C-terminally His6-tagged protein
Description: spectrophotometric NADPH oxidation kinetics with purified enzyme; substrate and substrate inhibitor on HcdE | 7-hydroxycoumarin was likely a pseudo-competitive inhibitor characterized by the inhibition constant Ki

[1] = test system: NC(=O)C1=CN([C@@H]2O[C@H](COP(=O)(O)OP(=O)(O)OC[C@H]3O[C@@H](n4cnc5c(N)ncnc54)[C@H](OP(=O)(O)O)[C@@H]3O)[C@@H](O)[C@H]2O)C=CC1; assay: purified protein; settings: varied: cofactor

T1 sequence (A0A890JDX9 1-376 limits assumed): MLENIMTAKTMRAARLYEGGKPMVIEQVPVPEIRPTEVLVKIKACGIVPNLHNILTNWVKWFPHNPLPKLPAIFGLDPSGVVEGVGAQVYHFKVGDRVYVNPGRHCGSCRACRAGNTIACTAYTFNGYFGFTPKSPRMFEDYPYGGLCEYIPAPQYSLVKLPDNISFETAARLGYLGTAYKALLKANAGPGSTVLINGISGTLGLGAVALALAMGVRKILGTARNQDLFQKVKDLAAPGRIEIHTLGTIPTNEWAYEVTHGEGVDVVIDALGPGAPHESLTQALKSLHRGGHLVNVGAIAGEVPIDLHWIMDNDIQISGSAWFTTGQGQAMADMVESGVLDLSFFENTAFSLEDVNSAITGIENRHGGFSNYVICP

Row | Compound | Ki ((UniProt A0A890JDX9)) | Km [1]
1 | O=c1ccc2ccc(O)cc2o1 [compound 1, 7-hydroxycoumarin] | 22 mM | –
2 | HcdE (Pseudomonas mandelii) | – | 20 µM

From paper PMC7913881, “The First Step of Biodegradation of 7-Hydroxycoumarin in Pseudomonas mandelii 7HK4 Depends on an Alcohol Dehydrogenase-Type Enzyme” (International Journal of Molecular Sciences, 2021)
